How the values were obtained:
Type in all cases: functional, cell-based
A549 = assay: Cytotoxicity against human A549 cells after 2 days by MTT assay; conditions: A549, 48 h
[1] = Cytotoxicity against mouse TRAMP-C1 cells after 2 days by MTT assay; conditions: TRAMP-C1, 48 h
MCF7 = assay: Cytotoxicity against human MCF7 cells after 2 days by MTT assay; conditions: MCF7, 48 h
[2] = Cytotoxicity against mouse C26 cells after 2 days by MTT assay; conditions: C26, 48 h

| SMILES | IC50 (A549) [µM] | IC50 [1] [µM] | IC50 (MCF7) [µM] | IC50 [2] [µM] |
| --- | --- | --- | --- | --- |
| Cc1ccc(C)c(OCCCC(C)(C)C(=O)NCCCCNC(=O)CCC(=O)c2ccc(-c3ccccc3)cc2)c1 | 9 | 40 | 2 | 10 |
| C=C(CC)C(=O)c1ccc(OCC(=O)NCCCCNC(=O)CCC(=O)c2ccc(-c3ccccc3)cc2)c(Cl)c1Cl | 19 | 80 | 5 | 35 |
| CCCCC(CC)C(=O)NCCCCNC(=O)CCC(=O)c1ccc(-c2ccccc2)cc1 (stereo not given) | 17 | 18 | 1 | 13 |
| O=C(O)CCC(=O)c1ccc(-c2ccccc2)cc1 [FENBUFEN] | > 100 | > 100 | > 50 | > 100 |
| NCCCCNC(=O)CCC(=O)c1ccc(-c2ccccc2)cc1 [FENBUFEN BUTANAMINE] | 100 |  | 87 |  |
| C=C(CC)C(=O)c1ccc(OCC(=O)NCCCCN)c(Cl)c1Cl | 18 |  | 8 |  |

— ChEMBL document CHEMBL1681694, “Solution-phase parallel synthesis and screening of anti-tumor activities from fenbufen and ethacrynic acid libraries” (Bioorg Med Chem Lett, 2011)
